From ChEMBL document CHEMBL5291721, “A preclinical secondary pharmacology resource illuminates target-adverse drug reaction associations of marketed drugs” (Nat Commun, 2023) come the findings set out here.

Among the targets are Melanocortin receptor 3 (Homo sapiens, UniProt P41968); Motilin receptor (Homo sapiens, UniProt O43193); Adenosine receptor A2a (Homo sapiens, UniProt P29274).
For experiment [1], the target named is T1, Amine oxidase [flavin-containing] A (Homo sapiens, UniProt P21397).
T1 sequence (P21397 whole entry): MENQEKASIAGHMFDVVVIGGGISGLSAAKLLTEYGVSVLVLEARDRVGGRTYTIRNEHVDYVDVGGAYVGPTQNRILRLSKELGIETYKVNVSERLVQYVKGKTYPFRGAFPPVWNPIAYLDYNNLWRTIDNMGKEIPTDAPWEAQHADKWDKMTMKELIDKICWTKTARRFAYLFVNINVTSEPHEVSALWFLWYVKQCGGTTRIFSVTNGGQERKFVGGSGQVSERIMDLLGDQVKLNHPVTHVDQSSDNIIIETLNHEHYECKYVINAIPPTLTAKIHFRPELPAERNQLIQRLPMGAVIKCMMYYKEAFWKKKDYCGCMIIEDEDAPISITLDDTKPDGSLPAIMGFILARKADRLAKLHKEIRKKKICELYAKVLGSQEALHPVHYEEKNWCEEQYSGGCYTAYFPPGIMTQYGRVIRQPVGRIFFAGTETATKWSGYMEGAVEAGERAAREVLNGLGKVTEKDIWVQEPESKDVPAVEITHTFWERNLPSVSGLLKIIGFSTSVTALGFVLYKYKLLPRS
The experiment is classed as functional.

Experiment [2] deals with Muscarinic acetylcholine receptor M3 (Homo sapiens, UniProt P20309).
Muscarinic acetylcholine receptor M3, sequence (P20309 whole entry): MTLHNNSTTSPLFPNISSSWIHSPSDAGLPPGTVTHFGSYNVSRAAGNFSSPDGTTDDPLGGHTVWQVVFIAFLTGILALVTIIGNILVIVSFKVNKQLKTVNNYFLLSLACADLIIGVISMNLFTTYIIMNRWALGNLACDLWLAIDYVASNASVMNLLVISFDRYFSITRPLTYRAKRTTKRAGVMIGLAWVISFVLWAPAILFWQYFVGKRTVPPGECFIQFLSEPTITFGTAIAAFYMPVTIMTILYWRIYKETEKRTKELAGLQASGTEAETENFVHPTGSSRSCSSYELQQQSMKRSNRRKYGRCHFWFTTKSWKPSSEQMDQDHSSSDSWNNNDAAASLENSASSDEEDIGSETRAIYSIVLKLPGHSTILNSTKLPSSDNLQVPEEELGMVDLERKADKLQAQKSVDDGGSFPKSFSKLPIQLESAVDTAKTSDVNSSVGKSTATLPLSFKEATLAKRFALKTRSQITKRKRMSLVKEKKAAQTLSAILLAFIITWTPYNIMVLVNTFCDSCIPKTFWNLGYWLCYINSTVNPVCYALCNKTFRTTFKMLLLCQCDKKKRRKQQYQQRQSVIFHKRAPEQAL
For another experiment, the target named is T2, Endothelin-1 receptor (Homo sapiens, UniProt P25101).
T2 sequence (P25101 whole entry): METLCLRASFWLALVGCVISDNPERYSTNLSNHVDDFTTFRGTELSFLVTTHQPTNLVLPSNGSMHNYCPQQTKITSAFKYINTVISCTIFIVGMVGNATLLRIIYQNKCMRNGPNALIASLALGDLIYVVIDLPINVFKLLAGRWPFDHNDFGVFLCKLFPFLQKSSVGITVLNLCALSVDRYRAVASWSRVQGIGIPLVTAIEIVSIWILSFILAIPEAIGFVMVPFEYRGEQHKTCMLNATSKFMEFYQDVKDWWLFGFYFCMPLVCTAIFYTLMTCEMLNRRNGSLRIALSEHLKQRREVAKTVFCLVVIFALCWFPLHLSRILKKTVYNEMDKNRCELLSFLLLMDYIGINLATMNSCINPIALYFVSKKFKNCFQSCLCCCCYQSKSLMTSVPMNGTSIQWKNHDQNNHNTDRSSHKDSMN

The target in experiment [3] is Neuronal acetylcholine receptor subunit alpha-4 (Homo sapiens, UniProt P43681).
Neuronal acetylcholine receptor subunit alpha-4, sequence (P43681 whole entry): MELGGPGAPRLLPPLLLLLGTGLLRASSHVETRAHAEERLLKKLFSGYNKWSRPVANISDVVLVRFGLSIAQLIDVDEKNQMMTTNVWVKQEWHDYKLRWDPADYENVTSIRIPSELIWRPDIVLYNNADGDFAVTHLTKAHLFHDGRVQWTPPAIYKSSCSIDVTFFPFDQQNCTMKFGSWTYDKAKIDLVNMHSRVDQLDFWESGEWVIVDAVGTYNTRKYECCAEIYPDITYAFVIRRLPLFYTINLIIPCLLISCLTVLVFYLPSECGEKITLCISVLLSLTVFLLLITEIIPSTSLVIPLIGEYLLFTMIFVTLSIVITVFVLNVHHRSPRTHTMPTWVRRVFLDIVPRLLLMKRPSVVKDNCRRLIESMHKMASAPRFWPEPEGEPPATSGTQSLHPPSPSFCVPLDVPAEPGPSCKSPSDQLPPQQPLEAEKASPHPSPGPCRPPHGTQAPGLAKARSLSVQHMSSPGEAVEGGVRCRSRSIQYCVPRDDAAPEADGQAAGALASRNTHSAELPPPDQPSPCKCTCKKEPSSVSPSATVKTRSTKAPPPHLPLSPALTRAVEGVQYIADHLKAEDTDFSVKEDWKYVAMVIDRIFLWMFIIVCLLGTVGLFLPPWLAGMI
The next experiment addresses T3, B2 bradykinin receptor (Homo sapiens, UniProt P30411).
T3 sequence (P30411 whole entry): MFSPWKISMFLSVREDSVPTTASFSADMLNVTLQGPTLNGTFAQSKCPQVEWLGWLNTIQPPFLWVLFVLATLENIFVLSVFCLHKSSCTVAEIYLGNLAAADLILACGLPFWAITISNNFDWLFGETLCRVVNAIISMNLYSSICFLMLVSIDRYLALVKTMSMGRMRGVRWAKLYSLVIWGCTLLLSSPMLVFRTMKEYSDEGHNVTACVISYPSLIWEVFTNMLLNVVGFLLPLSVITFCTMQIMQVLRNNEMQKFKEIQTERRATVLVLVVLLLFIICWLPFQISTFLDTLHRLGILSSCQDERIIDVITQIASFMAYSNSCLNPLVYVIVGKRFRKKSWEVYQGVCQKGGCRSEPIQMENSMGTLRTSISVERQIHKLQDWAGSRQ

Experiment [4] deals with 5-hydroxytryptamine receptor 2A (Homo sapiens, UniProt P28223). The format is functional, cell-based.
5-hydroxytryptamine receptor 2A, sequence (P28223 whole entry): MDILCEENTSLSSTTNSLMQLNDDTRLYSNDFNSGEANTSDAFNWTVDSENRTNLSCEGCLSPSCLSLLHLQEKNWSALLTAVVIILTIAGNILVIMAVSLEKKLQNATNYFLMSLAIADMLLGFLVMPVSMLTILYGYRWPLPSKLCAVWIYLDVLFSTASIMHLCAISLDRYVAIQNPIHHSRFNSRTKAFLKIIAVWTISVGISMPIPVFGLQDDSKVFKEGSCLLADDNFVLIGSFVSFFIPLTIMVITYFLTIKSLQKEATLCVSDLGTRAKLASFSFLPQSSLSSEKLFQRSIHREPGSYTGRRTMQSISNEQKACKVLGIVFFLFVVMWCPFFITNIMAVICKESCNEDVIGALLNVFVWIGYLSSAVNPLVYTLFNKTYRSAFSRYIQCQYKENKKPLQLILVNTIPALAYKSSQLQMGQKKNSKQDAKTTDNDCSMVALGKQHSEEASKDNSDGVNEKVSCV
The next experiment has as its target T4, Thromboxane A2 receptor (Homo sapiens, UniProt P21731).
T4 sequence (P21731 whole entry): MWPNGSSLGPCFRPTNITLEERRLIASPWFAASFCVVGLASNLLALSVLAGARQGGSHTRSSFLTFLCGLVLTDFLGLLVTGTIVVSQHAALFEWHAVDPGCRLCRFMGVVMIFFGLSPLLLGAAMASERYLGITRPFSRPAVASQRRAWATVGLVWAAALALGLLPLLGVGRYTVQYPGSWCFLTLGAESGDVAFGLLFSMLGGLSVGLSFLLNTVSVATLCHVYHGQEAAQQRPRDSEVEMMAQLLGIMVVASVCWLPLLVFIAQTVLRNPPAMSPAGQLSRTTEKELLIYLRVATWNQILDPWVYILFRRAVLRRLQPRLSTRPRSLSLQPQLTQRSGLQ

A further experiment concerns the target T5, Glucocorticoid receptor (Homo sapiens, UniProt P04150).
T5 sequence (P04150 whole entry): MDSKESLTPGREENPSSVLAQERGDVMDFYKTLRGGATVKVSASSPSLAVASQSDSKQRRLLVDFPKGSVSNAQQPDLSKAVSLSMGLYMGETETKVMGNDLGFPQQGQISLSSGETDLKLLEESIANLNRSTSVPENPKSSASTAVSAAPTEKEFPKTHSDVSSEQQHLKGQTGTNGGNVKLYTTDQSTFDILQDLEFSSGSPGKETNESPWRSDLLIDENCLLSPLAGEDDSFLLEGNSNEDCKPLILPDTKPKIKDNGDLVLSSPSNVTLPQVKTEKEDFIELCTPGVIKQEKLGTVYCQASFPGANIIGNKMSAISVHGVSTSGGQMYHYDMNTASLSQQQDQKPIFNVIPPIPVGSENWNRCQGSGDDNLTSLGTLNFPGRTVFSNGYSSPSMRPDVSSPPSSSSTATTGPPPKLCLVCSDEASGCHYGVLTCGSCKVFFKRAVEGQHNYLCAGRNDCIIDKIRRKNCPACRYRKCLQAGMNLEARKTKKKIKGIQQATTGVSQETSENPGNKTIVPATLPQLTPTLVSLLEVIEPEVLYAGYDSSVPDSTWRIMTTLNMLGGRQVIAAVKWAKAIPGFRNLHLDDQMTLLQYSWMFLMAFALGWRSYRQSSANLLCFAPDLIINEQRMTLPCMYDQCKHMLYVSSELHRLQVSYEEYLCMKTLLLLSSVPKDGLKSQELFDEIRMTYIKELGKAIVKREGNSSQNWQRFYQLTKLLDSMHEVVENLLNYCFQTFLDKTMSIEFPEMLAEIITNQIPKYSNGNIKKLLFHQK

The target of experiment [5] is Delta-type opioid receptor (Homo sapiens, UniProt P41143).
Delta-type opioid receptor, sequence (P41143 whole entry): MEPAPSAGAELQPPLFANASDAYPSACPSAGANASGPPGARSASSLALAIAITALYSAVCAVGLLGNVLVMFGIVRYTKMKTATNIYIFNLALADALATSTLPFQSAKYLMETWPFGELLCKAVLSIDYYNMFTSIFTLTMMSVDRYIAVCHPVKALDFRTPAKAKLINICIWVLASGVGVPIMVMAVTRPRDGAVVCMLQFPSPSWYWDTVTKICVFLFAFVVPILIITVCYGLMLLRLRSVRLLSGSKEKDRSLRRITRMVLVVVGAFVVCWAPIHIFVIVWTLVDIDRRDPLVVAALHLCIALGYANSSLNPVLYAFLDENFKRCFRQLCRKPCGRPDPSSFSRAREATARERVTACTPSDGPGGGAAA
Also: assay procedure not described here.

Motilin receptor, sequence (O43193 whole entry): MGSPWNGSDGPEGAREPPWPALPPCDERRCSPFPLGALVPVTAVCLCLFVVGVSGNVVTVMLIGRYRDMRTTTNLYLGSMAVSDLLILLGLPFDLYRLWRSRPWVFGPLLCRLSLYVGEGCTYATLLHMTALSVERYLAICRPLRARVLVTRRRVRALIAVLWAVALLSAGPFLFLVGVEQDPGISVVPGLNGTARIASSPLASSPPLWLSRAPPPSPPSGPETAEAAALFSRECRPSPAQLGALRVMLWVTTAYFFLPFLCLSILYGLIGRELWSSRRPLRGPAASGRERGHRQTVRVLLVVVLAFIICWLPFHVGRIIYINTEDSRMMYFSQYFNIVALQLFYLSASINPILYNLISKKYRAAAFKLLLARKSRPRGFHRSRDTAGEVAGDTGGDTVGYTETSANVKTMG
Adenosine receptor A2a, sequence (P29274 whole entry): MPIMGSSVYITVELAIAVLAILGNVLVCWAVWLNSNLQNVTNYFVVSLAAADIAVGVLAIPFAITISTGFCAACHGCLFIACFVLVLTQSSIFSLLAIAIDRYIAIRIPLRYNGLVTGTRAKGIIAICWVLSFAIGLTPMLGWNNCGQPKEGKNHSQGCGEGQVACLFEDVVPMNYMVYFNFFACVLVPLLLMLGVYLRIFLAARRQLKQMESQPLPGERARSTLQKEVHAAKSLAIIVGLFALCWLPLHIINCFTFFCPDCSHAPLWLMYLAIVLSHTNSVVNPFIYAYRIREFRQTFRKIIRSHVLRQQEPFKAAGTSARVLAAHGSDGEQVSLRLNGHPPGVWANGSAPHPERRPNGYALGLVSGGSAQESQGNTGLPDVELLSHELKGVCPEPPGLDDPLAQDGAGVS
Melanocortin receptor 3, sequence (P41968 whole entry): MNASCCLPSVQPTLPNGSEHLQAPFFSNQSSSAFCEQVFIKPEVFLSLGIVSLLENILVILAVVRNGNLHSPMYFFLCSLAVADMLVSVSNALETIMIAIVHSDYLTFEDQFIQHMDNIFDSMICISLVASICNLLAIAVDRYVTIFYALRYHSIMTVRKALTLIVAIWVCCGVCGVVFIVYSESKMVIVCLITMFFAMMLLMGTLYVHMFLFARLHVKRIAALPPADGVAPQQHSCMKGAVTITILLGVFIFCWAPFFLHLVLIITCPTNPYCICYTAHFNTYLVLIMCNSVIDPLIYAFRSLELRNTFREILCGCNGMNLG

Turning to `C=C[C@@]1(C)CC(=O)[C@]2(O)[C@@]3(C)[C@@H](O)CCC(C)(C)[C@@H]3[C@H](OC(=O)CCN(C)C)[C@H](OC(C)=O)[C@@]2(C)O1`, the AC50 was more than 30 µM in experiment [1]; more than 30 µM on Melanocortin receptor 3; more than 30 µM in experiment [2]; 7.8 µM on Motilin receptor; more than 30 µM at Endothelin-1 receptor; more than 30 µM in experiment [3]. Moreover, the AC50 (at B2 bradykinin receptor; in experiment [4]; at Thromboxane A2 receptor; at Glucocorticoid receptor; at Adenosine receptor A2a) was more than 30 µM throughout.
For the compound `CCCCC1(CC)C(=O)NC(=O)NC1=O` [BUTETHAL], the AC50 (in [1]; at Melanocortin receptor 3; in experiment [2]; at Motilin receptor; on Endothelin-1 receptor; in experiment [3]) was more than 30 µM each time. The AC50 (on B2 bradykinin receptor; in [4]; at Glucocorticoid receptor; in [5]; on Adenosine receptor A2a) was more than 30 µM in each case.
Regarding `CCN(CC)CCOC(=O)c1ccc(N)cc1Cl` [CHLOROPROCAINE], the AC50 in experiment [1] was 7.9 µM; at Melanocortin receptor 3 it was more than 30 µM; in experiment [2], 18 µM; at Motilin receptor, more than 30 µM; on Endothelin-1 receptor, more than 30 µM; in experiment [3], 25 µM. For the same compound, the AC50 (at B2 bradykinin receptor; in [4]; on Glucocorticoid receptor; in [5]; on Adenosine receptor A2a) was more than 30 µM each time.
As for `COCCOC(=O)C1=C(C)NC(C)=C(C(=O)OC/C=C/c2ccccc2)C1c1cccc([N+](=O)[O-])c1` (stereo not drawn) [CILNIDIPINE], the AC50 in experiment [1] was more than 30 µM; on Melanocortin receptor 3 it was more than 30 µM; in experiment [2], more than 30 µM; on Motilin receptor it was 24 µM; on Endothelin-1 receptor it was more than 30 µM; in [3], more than 30 µM. The AC50 at B2 bradykinin receptor was more than 30 µM; in experiment [4], more than 30 µM; on Thromboxane A2 receptor it was 21 µM; at Glucocorticoid receptor, 6.5 µM; in experiment [5], more than 30 µM; at Adenosine receptor A2a, more than 30 µM.
For `O=C(O)c1ccccc1OP(=O)(O)O` [FOSFOSAL], the AC50 (in [1]; on Melanocortin receptor 3; in [2]; at Motilin receptor; on Endothelin-1 receptor; in experiment [3]) was more than 30 µM in each case. The AC50 (on B2 bradykinin receptor; in experiment [4]; on Glucocorticoid receptor; in experiment [5]; on Adenosine receptor A2a) was more than 30 µM each time.
Take `CCCC[C@H](C)C[C@H](O)/C=C/[C@H]1[C@H](O)CC(=O)[C@@H]1CCCC/C=C/C(=O)O` [LIMAPROST]: the AC50 (in experiment [1]; on Melanocortin receptor 3; in experiment [2]; at Motilin receptor; on Endothelin-1 receptor; in [3]) was more than 30 µM throughout. The AC50 (at B2 bradykinin receptor; in experiment [4]; at Glucocorticoid receptor; in experiment [5]; on Adenosine receptor A2a) was more than 30 µM in each case.
As for `Cc1ccc(NC(=O)C2(c3ccc4c(c3)OC(F)(F)O4)CC2)nc1-c1cccc(C(=O)O)c1` [LUMACAFTOR], the AC50 (in [1]; on Melanocortin receptor 3; in [2]; on Motilin receptor; at Endothelin-1 receptor; in [3]) was more than 30 µM each time. Further, the AC50 (at B2 bradykinin receptor; in [4]; on Glucocorticoid receptor; in [5]; at Adenosine receptor A2a) was more than 30 µM throughout.
Turning to `CCOC(=O)Nc1ccc2c(c1)N(C(=O)CCN1CCOCC1)c1ccccc1S2` [MORICIZINE], the AC50 (in experiment [1]; at Melanocortin receptor 3; in experiment [2]; on Motilin receptor; on Endothelin-1 receptor; in [3]) was more than 30 µM throughout. The AC50 (on B2 bradykinin receptor; in experiment [4]; at Glucocorticoid receptor; in [5]; at Adenosine receptor A2a) was more than 30 µM in each case.
On to `CN1CCN(c2c(F)cc3c(=O)c(C(=O)O)cn4c3c2SCC4)CC1` [RUFLOXACIN], for which the AC50 (in experiment [1]; at Melanocortin receptor 3; in experiment [2]; on Motilin receptor; at Endothelin-1 receptor; in experiment [3]) was more than 30 µM throughout. For the same compound, the AC50 (on B2 bradykinin receptor; in [4]; on Thromboxane A2 receptor; on Glucocorticoid receptor; in experiment [5]; on Adenosine receptor A2a) was more than 30 µM throughout.
On to `COc1c(O[C@@H]2O[C@H](CO)[C@@H](O)[C@H](O)[C@H]2O)cc2c(c1OC)-c1ccc(SC)c(=O)cc1[C@@H](NC(C)=O)CC2` [THIOCOLCHICOSIDE], for which the AC50 (in experiment [1]; on Melanocortin receptor 3; in experiment [2]; on Motilin receptor; at Endothelin-1 receptor; in [3]) was more than 30 µM each time. Also, the AC50 (at B2 bradykinin receptor; in experiment [4]; at Thromboxane A2 receptor; in [5]; on Adenosine receptor A2a) was more than 30 µM each time.
As to `COc1cc2c(Nc3ccc(Br)cc3F)ncnc2cc1OCC1CCN(C)CC1` [VANDETANIB], the AC50 was more than 30 µM in experiment [1]; more than 30 µM on Melanocortin receptor 3; 24 µM in [2]; more than 30 µM at Motilin receptor; more than 30 µM on Endothelin-1 receptor; 9.6 µM in experiment [3]. Also, the AC50 at B2 bradykinin receptor is more than 10 µM; in experiment [4] it was 14 µM; on Glucocorticoid receptor, more than 30 µM; in [5] it was more than 30 µM; on Adenosine receptor A2a, more than 30 µM.
